Each structure is given as a SMILES string.

The target of data set [1] is T1, B-Raf (Homo sapiens, UniProt P15056).
T1 construct: purchased Upstate Biotechnology
Nature of the data set: Raf biochemical kinase assay (biotin-MEK1 phosphorylation), B-Raf. The settings on record: 100 μM ATP. On the procedure: (§1) Assays for biochemical and cell based activity are known in the art, for example, as described in PCT publication WO 2007/002433, the disclosure of which is hereby incorporated by reference as it relates to such assays. For example, the biochemical activity IC50 values are determined with respect to inhibition of A-Raf kinase activity, B-Raf kinase activity, c-Raf-1 kinase activity, or B-Raf V600E kinase activity, where inhibition of phosphorylation of a peptide substrate is measured as a function of compound concentration. Compounds to be tested are diluted in dimethyl sulfoxide to a concentration of 0.1 mM. These are serially diluted 15 μL into 30 μL of dimethyl sulfoxide seven times in 96 well plates for a total of 8 dilution points, and for each dilution point 1 μL is added to a well of an assay plate. Plates are prepared such that each well in a 384 well plate contains 1 μL of compound in 10 μL volume with 0.1 ng Raf enzyme (i.e. any of A-Raf, B-Raf, c-Raf-1 or B-Raf V600E, Upstate Biotechnology or prepared by methods known to one of skill in the art), 50 mM HEPES, pH 7.0, 50 mM NaCl, 2 mM MgCl2, 1 mM MnCl2, 0.01% Tween-20, 1 mM DTT, and 100 nM biotin-MEK1 as substrate. The reaction is started with addition of 10 μL of 200 μM ATP (i.e. final 100 μM ATP). After incubation of the kinase reaction for 45 minutes at room temperature, 5 μL/well of Stop Solution is added (25 mM Hepes pH 7.5, 100 mM EDTA, 0.01% BSA with donor beads (Streptavidin coated beads, Perkin Elmer), acceptor beads (Protein A coated, Perkin Elmer), and anti phosphor MEK1/2 antibody (CellSignal), each at final concentration 10 μg/mL). The plates are incubated for 3 hours at room temperature and read on Envision reader (Perkin Elmer). Phosphorylation of Mek1 results in binding of the anti-phosphor-MEK1/2 antibody and association of the donor and acceptor beads such that signal correlates with kinase activity. The signal vs. compound concentration is used to determine the IC50.

Data set [2] has as its system SK-MEL-2 cells. Nature of the data set: Cell growth inhibition (Cell Titer Glo), SK-MEL-2. The settings on record: Homo sapiens, SK-MEL-2, 72 h; wild-type B-RAF cell line, 3 days. The data set is classed as cell-based. On the procedure: (§2) Compounds are assessed in a variety of cell based assays, employing cells with or without B-Raf V600E mutation, for example cell lines with B-Raf V600E mutation (A375 and COLO205), as well as tumorigenic cell lines with wild-type B-RAF (SW620 and SK-MEL-2). Reagent and assay conditions are as follows:
(§3) SK-MEL-2 cells growth medium: • Minimum Eagle essential medium, 2 mM L-glutamine, 1.5 g/L sodium bicarbonate, 0.1 mM non-essential amino acids, 1.0 mM sodium pyruvate, 10% fetal bovine serum. • On day 1, cells are seeded in growth media in 200 μL per well in a 96-well polystyrene tissue culture plate at 2,000 cells per well (A375, COLO205, SK-MEL-2) or 5,000 cells per well for SW620, and incubated at 37° C. and 5% CO2 overnight. • On day 2, compound at 4 mM in dimethyl sulfoxide is serially diluted 1:4 (10 μL with 30 μL dimethyl sulfoxide) seven times for a total of 8 concentration points. For each dilution point a 1 μL aliquot is added to a well containing cells (highest dilution point at 20 μM), with 1 μL of dimethyl sulfoxide as a negative control (each sample at 0.5% dimethyl sulfoxide). The cells are incubated for 3 days at 37° C. in 5% CO2. • On day 5, Cell Titer Glo (Promega) is thawed and added 100 μL to each well and the plate shaken for 1-2 minutes. The plates are incubated for 10 minutes at room temperature, then […] signal is read (e.g. on Safire reader). The measured fluoresence correlates directly with cell number, such that the reading as a function of compound concentration is used to determine the IC50 value.

In data set [3] the test system is SW620 cells. Nature of the data set: Cell growth inhibition (Cell Titer Glo), SW620. The format is cell-based. The settings on record: Homo sapiens, SW-620, 72 h; wild-type B-RAF cell line, 3 days. On the procedure: as §2
SW620 cells growth medium: • Leibovitz's L-15 medium, 2 mM L-glutamine, 10% fetal bovine serum.
as §3
(In ATP-based viability assays light output follows the ATP content of the culture.)

In data set [4] the test system is Raf kinases. Nature of the data set: Biochemical assay, Raf kinases as well as other kinases. Here is the method: as §1
For data set [5], the target named is Src (Homo sapiens, UniProt P12931). Nature of the data set: Biochemical inhibitory activity, other protein kinases: Src. To be noted: for Kinase having IC50 of >1 μM: listing of the kinase means IC50 >1 μM; for Kinase having IC50 of <1 μM: listing of the kinase means IC50 <1 μM.
Data set [6] has as its target T2, CYP3A4(BQ) (Homo sapiens, UniProt P08684).
T2 construct: purchased BD Biosciences
Briefly: CYP inhibition (fluorescent substrate), CYP3A4(BQ). The format is in vitro ADME. To be noted: read-out: Cyp IC50 (μM) 3A4(BQ). Here is the method: CYP (Cytochrome P450) enzymes are the major drug metabolizing enzymes present in the liver. The inhibition of CYP enzyme activity (IC50) for each of CYP1A2, CYP2C19, CYP2C9, CYP2D6, CYP3A4(BFC) and CYP3A4(BQ) is determined for compounds, where inhibition of metabolism of a known substrate leads to a decrease in the fluorescence of the metabolized product. The fluorescence of the product is monitored as a function of compound concentration. Compounds are dissolved in dimethyl sulfoxide to a concentration of 100 mM. These are diluted 1 μL into 82 μL of acetonitrile. An 11 μL aliquot of this solution is then added to 204 μL of cofactor mix (1.3% NADPH Regeneration system Solution A, 1.04% NADPH Regeneration system Solution B from BD Biosciences, 5% acetonitrile and 0.05% dimethyl sulfoxide). These are then serially diluted 1:1 (160 μL to 160 μL co-factor mix) for a total of 10 points. A 10 μL aliquot of this final mixture is dispensed into 384 well assay plates and incubated for 10 minutes at 37° C. […] Assay plates are incubated at 37° C. (CYP1A2-15 min; CYP2C9-45 min; CYP2C19, 2D6 and 3A4-30 min) and read in a Tecan Safire 2 plate reader (CYP1A2, 2C19 and 3A4 409 ex/460 em; CYP2C9 and 2D6 409 ex/530 em). The signal versus compound concentration is used to determine the IC50. The enzymes and substrates for this assay are obtained from BD Biosciences.

For data set [7], the target named is Hgk (Homo sapiens, UniProt O95819). Nature of the data set: Biochemical inhibitory activity, other protein kinases: Hgk. The settings on record: for Kinase having IC50 of >1 μM: listing of the kinase means IC50 >1 μM; for Kinase having IC50 of <1 μM: listing of the kinase means IC50 <1 μM.
Data set [8] in a line: Relative solubility by turbidity in aqueous buffers. The data set is classed as physicochemical. The settings on record: pH 1.4 as headed (Simulated Gastric Fluid).
The test system of data set [9] is COLO205 cells. Briefly: Cell growth inhibition (Cell Titer Glo), COLO205. The format is cell-based. To be noted: Homo sapiens, COLO 205, 72 h; B-Raf V600E cell line, 3 days. On the procedure:
as §2
COLO205 cells growth medium: • RPMI 1640, 2 mM L-glutamine, 1.5 g/L sodium bicarbonate, 4.5 g/L D-glucose, 10 mM HEPES, 1.0 mM sodium pyruvate, 10% fetal bovine serum.
as §3

T2 sequence (P08684 whole entry): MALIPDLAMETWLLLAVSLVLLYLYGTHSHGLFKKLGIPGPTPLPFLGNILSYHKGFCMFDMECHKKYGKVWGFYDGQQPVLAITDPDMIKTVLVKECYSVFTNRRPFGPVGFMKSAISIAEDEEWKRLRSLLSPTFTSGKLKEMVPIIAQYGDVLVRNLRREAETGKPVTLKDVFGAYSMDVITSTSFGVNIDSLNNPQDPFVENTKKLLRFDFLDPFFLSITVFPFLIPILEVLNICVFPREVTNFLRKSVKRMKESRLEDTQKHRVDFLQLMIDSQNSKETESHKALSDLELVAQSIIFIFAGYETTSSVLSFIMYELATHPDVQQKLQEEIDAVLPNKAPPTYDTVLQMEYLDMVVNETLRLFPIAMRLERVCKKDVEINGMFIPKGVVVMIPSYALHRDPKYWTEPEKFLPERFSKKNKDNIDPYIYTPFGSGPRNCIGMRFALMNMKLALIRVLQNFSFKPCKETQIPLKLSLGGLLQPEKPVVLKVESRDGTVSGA
T1 sequence (P15056 whole entry): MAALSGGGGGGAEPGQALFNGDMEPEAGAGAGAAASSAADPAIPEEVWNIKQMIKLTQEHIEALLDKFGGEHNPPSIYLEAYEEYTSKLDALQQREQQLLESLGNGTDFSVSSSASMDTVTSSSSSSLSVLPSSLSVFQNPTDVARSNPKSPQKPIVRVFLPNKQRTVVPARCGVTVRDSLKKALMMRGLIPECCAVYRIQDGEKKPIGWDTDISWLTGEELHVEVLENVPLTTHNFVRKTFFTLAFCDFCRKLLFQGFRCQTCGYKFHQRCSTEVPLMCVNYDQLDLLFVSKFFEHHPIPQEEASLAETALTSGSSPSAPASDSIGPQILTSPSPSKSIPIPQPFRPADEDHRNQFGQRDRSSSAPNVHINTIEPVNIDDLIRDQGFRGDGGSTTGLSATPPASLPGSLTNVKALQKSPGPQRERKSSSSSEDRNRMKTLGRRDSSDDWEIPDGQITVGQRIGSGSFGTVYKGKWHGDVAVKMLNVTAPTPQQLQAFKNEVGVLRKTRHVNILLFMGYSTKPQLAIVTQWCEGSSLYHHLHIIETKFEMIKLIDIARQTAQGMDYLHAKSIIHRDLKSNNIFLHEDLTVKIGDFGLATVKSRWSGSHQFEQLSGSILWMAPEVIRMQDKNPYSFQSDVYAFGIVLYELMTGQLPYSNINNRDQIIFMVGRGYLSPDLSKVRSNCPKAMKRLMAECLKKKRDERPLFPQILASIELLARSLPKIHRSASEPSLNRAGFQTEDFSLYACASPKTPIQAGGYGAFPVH
Src, sequence (P12931 whole entry, species assumed): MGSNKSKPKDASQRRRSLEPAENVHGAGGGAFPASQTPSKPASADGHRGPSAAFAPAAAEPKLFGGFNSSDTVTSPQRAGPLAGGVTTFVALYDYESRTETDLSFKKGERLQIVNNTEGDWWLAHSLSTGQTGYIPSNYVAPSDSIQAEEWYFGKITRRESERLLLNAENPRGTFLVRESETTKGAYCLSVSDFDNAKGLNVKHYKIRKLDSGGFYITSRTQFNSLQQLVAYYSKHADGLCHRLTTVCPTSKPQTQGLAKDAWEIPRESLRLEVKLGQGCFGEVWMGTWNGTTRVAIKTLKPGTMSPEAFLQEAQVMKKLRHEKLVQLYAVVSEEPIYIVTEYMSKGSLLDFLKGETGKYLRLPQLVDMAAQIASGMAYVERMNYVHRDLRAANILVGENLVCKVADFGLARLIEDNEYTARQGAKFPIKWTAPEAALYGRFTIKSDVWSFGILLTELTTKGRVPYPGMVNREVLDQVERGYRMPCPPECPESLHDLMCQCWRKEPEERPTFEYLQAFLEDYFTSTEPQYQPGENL
Hgk, sequence (O95819 whole entry, species assumed): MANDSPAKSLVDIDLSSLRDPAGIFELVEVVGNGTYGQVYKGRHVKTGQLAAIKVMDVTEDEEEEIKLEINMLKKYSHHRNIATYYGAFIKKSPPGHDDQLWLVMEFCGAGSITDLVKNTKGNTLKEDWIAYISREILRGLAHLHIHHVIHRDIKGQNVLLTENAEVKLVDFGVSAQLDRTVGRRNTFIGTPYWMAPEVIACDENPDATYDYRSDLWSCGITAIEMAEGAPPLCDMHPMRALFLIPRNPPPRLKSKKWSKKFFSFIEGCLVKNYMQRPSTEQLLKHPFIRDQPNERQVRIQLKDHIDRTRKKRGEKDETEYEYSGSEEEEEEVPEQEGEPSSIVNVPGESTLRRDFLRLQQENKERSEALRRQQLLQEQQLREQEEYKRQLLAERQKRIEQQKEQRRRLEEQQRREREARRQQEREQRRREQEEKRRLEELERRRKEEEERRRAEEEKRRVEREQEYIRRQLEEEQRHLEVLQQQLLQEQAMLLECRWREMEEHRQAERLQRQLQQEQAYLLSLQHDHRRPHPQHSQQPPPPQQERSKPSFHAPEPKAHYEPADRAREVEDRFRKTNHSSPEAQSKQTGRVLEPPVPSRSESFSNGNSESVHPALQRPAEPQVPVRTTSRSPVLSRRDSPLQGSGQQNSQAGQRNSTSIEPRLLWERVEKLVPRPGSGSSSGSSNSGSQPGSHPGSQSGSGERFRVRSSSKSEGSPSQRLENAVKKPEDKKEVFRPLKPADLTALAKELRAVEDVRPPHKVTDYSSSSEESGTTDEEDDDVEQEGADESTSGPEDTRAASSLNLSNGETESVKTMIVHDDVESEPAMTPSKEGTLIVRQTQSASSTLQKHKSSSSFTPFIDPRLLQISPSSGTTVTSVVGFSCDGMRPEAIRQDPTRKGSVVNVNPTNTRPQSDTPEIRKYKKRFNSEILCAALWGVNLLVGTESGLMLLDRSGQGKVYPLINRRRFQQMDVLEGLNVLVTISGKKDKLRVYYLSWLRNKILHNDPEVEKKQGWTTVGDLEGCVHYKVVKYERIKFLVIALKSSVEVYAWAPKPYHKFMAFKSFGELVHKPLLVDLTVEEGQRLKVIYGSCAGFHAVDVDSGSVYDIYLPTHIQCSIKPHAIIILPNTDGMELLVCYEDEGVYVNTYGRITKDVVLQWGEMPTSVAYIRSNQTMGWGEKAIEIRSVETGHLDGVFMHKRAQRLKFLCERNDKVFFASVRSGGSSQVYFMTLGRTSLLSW

In the case of `CCCS(=O)(=O)Nc1ccc(F)c(C(=O)c2c[nH]c3ncc(-c4cnc(OC)nc4)cc23)c1F` [Compound P-0001, propane-1-sulfonic acid {2,4-difluoro-3-[5-(2-methoxy-pyrimidin-5-yl)-1H-pyrrolo[2,3-b]pyridine-3-carbonyl]-phenyl}-amide], the IC50 – broadly, the concentration needed to halve the response being measured – was less than 0.1 µM in data set [1]; more than 5 µM in [2]; more than 20 µM in data set [3]; more than 10 µM in [6]; less than 1 µM in data set [9]. Besides, the “Selectivity of inhibitory activity, Raf kinases versus other kinases” value (shortened to “Selectivity of inhibitory activity”) in [4] was “selective activity to the Raf kinases”. For the same compound, the “Kinase having IC50 of >1 μM” value is reported as “Src” in data set [5] and “Hgk” in data set [7]. In addition, the “turbidity threshold (L, M, H) 1.4” value in data set [8] is “M (moderate solubility if the threshold concentration is 31.3 μM to 250 μM)”.
For the compound `CCCS(=O)(=O)Nc1ccc(F)c(C(=O)c2c[nH]c3ncc(C#N)cc23)c1F` [Compound P-0002, propane-1-sulfonic acid [3-(5-cyano-1H-pyrrolo[2,3-b]pyridine-3-carbonyl)-2,4-difluoro-phenyl]-amide], the concentration for half-maximal inhibition (IC50) in data set [1] was less than 0.1 µM; in data set [2] it was more than 20 µM; in data set [3], more than 20 µM; in [6], more than 10 µM; in [9], less than 1 µM. Further, the “Selectivity of inhibitory activity” value in data set [4] is given as “selective activity to the Raf kinases”. Further, the “Kinase having IC50 of >1 μM” value in [5] is listed as “Src”; in data set [7], “Hgk”. Further, the “turbidity threshold (L, M, H) 1.4” value in data set [8] is given as “M (moderate solubility if the threshold concentration is 31.3 μM to 250 μM)”.
For the compound `CCCS(=O)(=O)Nc1cccc(C(=O)c2c[nH]c3ncc(C#N)cc23)c1F` [Compound P-0003, propane-1-sulfonic acid [3-(5-cyano-1H-pyrrolo[2,3-b]pyridine-3-carbonyl)-2-fluoro-phenyl]-amide], the IC50 is less than 1 µM in [1]; more than 20 µM in data set [2]; more than 20 µM in data set [3]; more than 10 µM in data set [6]; less than 2 µM in data set [9]. Moreover, the “Selectivity of inhibitory activity” value in data set [4] was “selective activity to the Raf kinases”. Moreover, the “Kinase having IC50 of >1 μM” value in [5] is listed as “Src”; in data set [7] it was “Hgk”. Moreover, the “turbidity threshold (L, M, H) 1.4” value in data set [8] is listed as “M (moderate solubility if the threshold concentration is 31.3 μM to 250 μM)”.
With `N#Cc1cnc2[nH]cc(C(=O)c3c(F)ccc(NS(=O)(=O)c4cc(F)ccc4F)c3F)c2c1` [Compound P-0004, N-[3-(5-cyano-1H-pyrrolo[2,3-b]pyridine-3-carbonyl)-2,4-difluoro-phenyl]-2,5-difluoro-benzenesulfonamide], the IC50 in [1] was less than 0.1 µM; in data set [2], more than 20 µM; in data set [3], more than 20 µM; in data set [6], 5 to 10 µM; in data set [9] it was less than 1 µM. In addition, the “Selectivity of inhibitory activity” value in data set [4] is on record as “selective activity to the Raf kinases”. The “Kinase having IC50 of <1 μM” value in [5] was “Src”; in data set [7], “Hgk”. Further, the “turbidity threshold (L, M, H) 1.4” value in data set [8] was “M (moderate solubility if the threshold concentration is 31.3 μM to 250 μM)”.
As to `N#Cc1cnc2[nH]cc(C(=O)c3c(F)ccc(NS(=O)(=O)c4cccc(F)c4)c3F)c2c1` [Compound P-0005, N-[3-(5-cyano-1H-pyrrolo[2,3-b]pyridine-3-carbonyl)-2,4-difluoro-phenyl]-3-fluoro-benzenesulfonamide], the concentration for half-maximal inhibition (IC50) is less than 0.01 µM in data set [1]; more than 20 µM in [2]; more than 20 µM in [3]; 5 to 10 µM in data set [6]; less than 1 µM in data set [9]. Also, the “Selectivity of inhibitory activity” value in data set [4] is recorded as “selective activity to the Raf kinases”. In addition, the entries for the “Kinase having IC50 of <1 μM” value in [5] and in data set [7] were “Src” and “Hgk”, respectively. Further, in [8], the “turbidity threshold (L, M, H) 1.4” value is “M (moderate solubility if the threshold concentration is 31.3 μM to 250 μM)”.
With `N#Cc1cnc2[nH]cc(C(=O)c3c(F)ccc(NS(=O)(=O)N4CCCC4)c3F)c2c1` [Compound P-0006, pyrrolidine-1-sulfonic acid [3-(5-cyano-1H-pyrrolo[2,3-b]pyridine-3-carbonyl)-2,4-difluoro-phenyl]-amide], the concentration for half-maximal inhibition (IC50) is less than 0.1 µM in data set [1], more than 10 µM in data set [6] and less than 1 µM in [9]. In addition, the “Selectivity of inhibitory activity” value in data set [4] is on record as “selective activity to the Raf kinases”. In addition, the “Kinase having IC50 of >1 μM” value in data set [5] is on record as “Src”; in data set [7], “Hgk”. In [8], the “turbidity threshold (L, M, H) 1.4” value is “M (moderate solubility if the threshold concentration is 31.3 μM to 250 μM)”.
Regarding `CN(C)S(=O)(=O)Nc1ccc(F)c(C(=O)c2c[nH]c3ncc(C#N)cc23)c1F` [Compound P-0007, N,N-dimethylamino-sulfonic acid [3-(5-cyano-1H-pyrrolo[2,3-b]pyridine-3-carbonyl)-2,4-difluoro-phenyl]-amide], the IC50 was less than 1 µM in [1]; more than 20 µM in [2]; more than 20 µM in data set [3]; less than 5 µM in [6]; less than 3 µM in data set [9]. Further, the “Selectivity of inhibitory activity” value in data set [4] is listed as “selective activity to the Raf kinases”. The “Kinase having IC50 of >1 μM” value in data set [5] is listed as “Src”; in [7], “Hgk”. Also, in data set [8], the “turbidity threshold (L, M, H) 1.4” value is “M (moderate solubility if the threshold concentration is 31.3 μM to 250 μM)”.

The values above are taken from patent US8901301B2, “Pyrrolo[2,3-]pyridine kinase inhibitors” (Plexxikon Inc., priority 2009, dated 2014).
